The nature of this data set: Bulk density, tapped density and Carr Index (flowability) of raw materials and granules.

The values that follow come from patent US20220280461A1, “SOLID ORAL DOSAGE FORM COMPRISING NAPROXEN AND VITAMIN B12” (DSM IP ASSETS B.V., priority 2019, published 2022).

SMILES strings stand for the structures.

Description: The Carr Index is calculated by the formula 100×(1-BD/TD) and is used as an indication of the flowability.

Turning to `COc1ccc2cc([C@H](C)C(=O)O)ccc2c1` [Naproxen Sodium, naproxen sodium], the “Description (physical characterization of powder)” value is reported as “very lumpy”.
